Data reported in ChEMBL document CHEMBL5113409, “Design and synthesis of proteolysis targeting chimeras (PROTACs) as an EGFR degrader based on CO-1686” (Eur J Med Chem, 2022).
Activity calls are given as the source filed them. No cut-off for these calls is given here.

Tests used:
NCI-H1975 [1] = experiment: Induction of apoptosis in human NCI-H1975 cells assessed as late apoptosis cells level at 1 uM incubated for 48 hrs by Annexin-V/propidium iodide staining based biparametric cytofluorometric assay (reference value: 2.46%); assay type: functional
NCI-H1975 [2] = experiment: Induction of cell cycle arrest in human NCI-H1975 cells assessed as accumulation at S phase at 0.25 uM incubated for 48 hrs by propidium iodide staining based flow cytometry (reference value: 37.13%); assay type: functional
NCI-H1975 [3] = experiment: Induction of apoptosis in human NCI-H1975 cells assessed as viable cells level at 0.5 uM incubated for 48 hrs by Annexin-V/propidium iodide staining based biparametric cytofluorometric assay (reference value: 93.9%); assay type: functional
NCI-H1975 [4] = experiment: Induction of apoptosis in human NCI-H1975 cells assessed as viable cells level at 1 uM incubated for 48 hrs by Annexin-V/propidium iodide staining based biparametric cytofluorometric assay (reference value: 93.9%); assay type: functional
NCI-H1975 [5] = experiment: Induction of cell cycle arrest in human NCI-H1975 cells assessed as accumulation at G2/M phase at 0.25 uM incubated for 48 hrs by propidium iodide staining based flow cytometry (reference value: 3.68%); assay type: functional
NCI-H1975 [6] = experiment: Induction of apoptosis in human NCI-H1975 cells assessed as early apoptosis cells level at 0.25 uM incubated for 48 hrs by Annexin-V/propidium iodide staining based biparametric cytofluorometric assay (reference value: 2.26%); assay type: functional
[7] = target: Epidermal growth factor receptor (Homo sapiens, UniProt P00533, L858R/T790M); experiment: Inhibition of EGFR L858R/T790M mutant (unknown origin) incubated for 35 mins by HTRF KinEASE-TK assay
[8] = test system: Protein cereblon/Epidermal growth factor receptor (Homo sapiens), P00533+Q96SW2 [L858R,T790M]; experiment: Protac activity at CRBN/EGFR L858R/T790M mutant in human NCI-H1975 cells assessed as L858R/T790M mutant degradation at 0.3 uM incubated up to 36 hrs by Western blot analysis; assay type: cell-based; conditions: TDE = time-dependent effect
NCI-H1975 [9] = experiment: Induction of apoptosis in human NCI-H1975 cells assessed as late apoptosis cells level at 0.5 uM incubated for 48 hrs by Annexin-V/propidium iodide staining based biparametric cytofluorometric assay (reference value: 2.46%); assay type: functional
NCI-H1975 [10] = experiment: Induction of apoptosis in human NCI-H1975 cells assessed as necrosis cells level at 0.5 uM incubated for 48 hrs by Annexin-V/propidium iodide staining based biparametric cytofluorometric assay (reference value: 2.46%); assay type: functional
Homo sapiens = organism: Homo sapiens; experiment: Selectivity index, ratio of IC50 for wild type EGFR (unknown origin) to IC50 for Protein cereblon/Epidermal growth factor receptor L858R/T790M mutant
NCI-H1975 [11] = experiment: Induction of cell cycle arrest in human NCI-H1975 cells assessed as accumulation at G0/G1 phase at 1 uM incubated for 48 hrs by propidium iodide staining based flow cytometry (reference value: 59.18%); assay type: functional
NCI-H1975 [12] = experiment: Induction of apoptosis in human NCI-H1975 cells incubated for 48 hrs by Annexin-V/propidium iodide staining based biparametric cytofluorometric assay; assay type: functional, cell-based; conditions: DDE = dose-dependent effect
NCI-H1975 [13] = experiment: Induction of cell cycle arrest in human NCI-H1975 cells assessed as accumulation at G2/M phase at 1 uM incubated for 48 hrs by propidium iodide staining based flow cytometry (reference value: 3.68%); assay type: functional
NCI-H1975 [14] = experiment: Induction of cell cycle arrest in human NCI-H1975 cells assessed as accumulation at G0/G1 phase at 0.5 uM incubated for 48 hrs by propidium iodide staining based flow cytometry (reference value: 59.18%); assay type: functional
PC-9 = experiment: Anti-proliferative activity against human PC-9 cells assessed as reduction in cell proliferation incubated for 72 hrs by MTT assay; assay type: functional, cell-based; conditions: PC-9, 72 h
NCI-H1975 [15] = experiment: Induction of apoptosis in human NCI-H1975 cells assessed as late apoptosis cells level at 0.25 uM incubated for 48 hrs by Annexin-V/propidium iodide staining based biparametric cytofluorometric assay (reference value: 2.46%); assay type: functional
[16] = target: Epidermal growth factor receptor (Homo sapiens, UniProt P00533); experiment: Inhibition of wild type EGFR (unknown origin) incubated for 10 mins by HTRF KinEASE-TK assay
NCI-H1975 [17] = experiment: Induction of cell cycle arrest in human NCI-H1975 cells assessed as accumulation at G2/M phase at 0.5 uM incubated for 48 hrs by propidium iodide staining based flow cytometry (reference value: 3.68%); assay type: functional
[18] = test system: Protein cereblon/Epidermal growth factor receptor (Homo sapiens), P00533+Q96SW2 [L858R,T790M]; experiment: Protac activity at CRBN/EGFR L858R/T790M mutant in human NCI-H1975 cells assessed as L858R/T790M mutant degradation at 3 uM incubated for 48 hrs by Western blot analysis; assay type: cell-based
[19] = test system: Protein cereblon/Epidermal growth factor receptor (Homo sapiens), P00533+Q96SW2 [L858R,T790M]; experiment: Protac activity at CRBN/EGFR L858R/T790M mutant in human NCI-H1975 cells assessed as L858R/T790M mutant degradation incubated for 48 hrs by Western blot analysis relative to untreated control; assay type: cell-based
NCI-H1975 [20] = experiment: Induction of cell cycle arrest in human NCI-H1975 cells assessed as accumulation at G0/G1 phase at 0.25 uM incubated for 48 hrs by propidium iodide staining based flow cytometry (reference value: 59.18%); assay type: functional
NCI-H1975 [21] = experiment: Induction of apoptosis in human NCI-H1975 cells assessed as necrosis cells level at 1 uM incubated for 48 hrs by Annexin-V/propidium iodide staining based biparametric cytofluorometric assay (reference value: 2.46%); assay type: functional
NCI-H1975 [22] = experiment: Induction of apoptosis in human NCI-H1975 cells assessed as early apoptosis cells level at 1 uM incubated for 48 hrs by Annexin-V/propidium iodide staining based biparametric cytofluorometric assay (reference value: 2.26%); assay type: functional
A549 = experiment: Anti-proliferative activity against human A549 cells assessed as reduction in cell proliferation incubated for 72 hrs by MTT assay; assay type: functional, cell-based; conditions: A549, 72 h
NCI-H1975 [23] = experiment: Induction of cell cycle arrest in human NCI-H1975 cells assessed as accumulation at S phase at 1 uM incubated for 48 hrs by propidium iodide staining based flow cytometry (reference value: 37.13%); assay type: functional
NCI-H1975 [24] = experiment: Induction of apoptosis in human NCI-H1975 cells assessed as viable cells level at 0.25 uM incubated for 48 hrs by Annexin-V/propidium iodide staining based biparametric cytofluorometric assay (reference value: 93.9%); assay type: functional
NCI-H1975 [25] = experiment: Anti-proliferative activity against human NCI-H1975 cells assessed as reduction in cell proliferation incubated for 72 hrs by MTT assay; assay type: functional, cell-based; conditions: NCI-H1975, 72 h
[26] = test system: Protein cereblon/Epidermal growth factor receptor (Homo sapiens), P00533+Q96SW2 [L858R,T790M]; experiment: (§1) Protac activity at CRBN/EGFR L858R/T790M mutant in human NCI-H1975 cells assessed as L858R/T790M mutant degradation incubated for 48 hrs by Western blot analysis; assay type: cell-based; conditions: DDE = dose-dependent effect
[27] = target: Protein cereblon/Epidermal growth factor receptor (Homo sapiens, UniProt P00533+Q96SW2, T790M/L858R); experiment: as §1; assay type: cell-based
NCI-H1975 [28] = experiment: Induction of apoptosis in human NCI-H1975 cells assessed as early apoptosis cells level at 0.5 uM incubated for 48 hrs by Annexin-V/propidium iodide staining based biparametric cytofluorometric assay (reference value: 2.26%); assay type: functional
NCI-H1975 [29] = experiment: Induction of cell cycle arrest in human NCI-H1975 cells assessed as accumulation at S phase at 0.5 uM incubated for 48 hrs by propidium iodide staining based flow cytometry (reference value: 37.13%); assay type: functional

SMILES: C=CC(=O)Nc1cccc(Nc2nc(Nc3ccc(N4CCN(CC(=O)NCCNc5cccc6c5C(=O)N(C5CCC(=O)NC5=O)C6=O)CC4)cc3OC)ncc2C(F)(F)F)c1 (configuration not stated)
- Activity (NCI-H1975 [1]): 39.9%
- Activity (NCI-H1975 [2]): 23.89%
- Activity (NCI-H1975 [3]): 73.3%
- Activity (NCI-H1975 [4]): 58%
- Activity (NCI-H1975 [5]): 4.01%
- Activity (NCI-H1975 [6]): 2.78%
- IC50 [7]: 43.1 nM
- Activity [8]: Tde
- Activity (NCI-H1975 [9]): 18.3%
- Activity (NCI-H1975 [10]): 2.22%
- Ratio IC50 (Homo sapiens): 19
- Activity (NCI-H1975 [11]): 77.8%
- Activity (NCI-H1975 [12]): Dde
- Activity (NCI-H1975 [13]): 4.8%
- Activity (NCI-H1975 [14]): 73.71%
- IC50 (PC-9): 750 nM
- Activity (NCI-H1975 [15]): 6.07%
- IC50 [16]: 839 nM
- Activity (NCI-H1975 [17]): 3.72%
- Activity [18]: Active
- Emax [19]: 83%
- Activity (NCI-H1975 [20]): 72.1%
- Activity (NCI-H1975 [21]): 4.71%
- Activity (NCI-H1975 [22]): 6.63%
- IC50 (A549): > 100000 nM
- Activity (NCI-H1975 [23]): 17.39%
- Activity (NCI-H1975 [24]): 89.7%
- IC50 (NCI-H1975 [25]): 240 nM
- Activity [26]: Dde
- DC50 [27]: 356 nM
- Activity (NCI-H1975 [28]): 6.16%
- Activity (NCI-H1975 [29]): 22.57%
